Assay results: article PMC9820568, “Near-Infrared Imaging of Steroid Hormone Activities Using Bright BRET Templates” (International Journal of Molecular Sciences, 2022)

Assays:
[1] = target: T1, NLuc (NanoLuc) (Oplophorus gracilirostris, UniProt Q9GV45, A31E/Q38R/Q45L/L54V/A60N/K70R/V71I/A81I/F95D/L99Q/M102K/I117V/P142E/Q151K/Y165I/N193R); assay: bioluminescence imaging and spectra, COS-7; type: cell-based; conditions: live cells and lysate; […] substrate in PBS
T1 construct: engineered NanoLuc variant of the 19 kDa subunit, expressed from pcDNA3.1(+) in COS-7, mostly cytosolic
T1 sequence (Q9GV45 28-196 with the stated changes): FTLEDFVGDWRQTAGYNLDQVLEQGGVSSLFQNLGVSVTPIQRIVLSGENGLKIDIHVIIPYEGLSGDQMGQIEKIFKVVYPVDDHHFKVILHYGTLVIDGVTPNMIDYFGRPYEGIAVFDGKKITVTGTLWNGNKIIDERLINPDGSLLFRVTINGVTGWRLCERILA

[2] = target: T2, LSSmNep-GR5GS-NLuc (GR HLBD) (Homo sapiens, UniProt P04150); assay: NIR-BRET, COS-7 stably expressing single-chain probe; type: cell-based; conditions: live cells stimulated […] h; DBlueC substrate; […] nm filter
T2 construct: gene NR3C1; stably expressed in COS-7
T2 sequence (P04150 486-777): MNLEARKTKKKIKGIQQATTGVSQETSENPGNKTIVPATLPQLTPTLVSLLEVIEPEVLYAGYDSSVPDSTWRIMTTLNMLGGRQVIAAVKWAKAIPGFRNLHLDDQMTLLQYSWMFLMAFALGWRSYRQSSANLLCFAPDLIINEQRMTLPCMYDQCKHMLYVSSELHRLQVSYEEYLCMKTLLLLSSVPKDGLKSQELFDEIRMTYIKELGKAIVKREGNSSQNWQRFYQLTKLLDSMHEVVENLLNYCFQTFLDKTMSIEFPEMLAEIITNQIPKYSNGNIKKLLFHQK

[3] = target: T1, NLuc (NanoLuc); assay: bioluminescence spectra, COS-7 lysate; type: biochemical; conditions: substrate solution […] in PBS

## Oc1c(Cc2ccccc2)nc2c(Cc3ccccc3)nc(-c3ccccc3)cn12 [DBlueC, DeepBlueC]
[1]
  bioluminescence imaging and spectra, COS-7: DBlueC and nCTZ were exclusively bright with NLuc and ALuc47, respectively

## C[C@]12CCC(=O)C=C1CC[C@@H]1[C@@H]2[C@@H](O)C[C@@]2(C)[C@H]1CC[C@]2(O)C(=O)CO [cortisol]
[2]
  fold NIR-BRET intensity at 10^-6 M: 1.3 fold

## Oc1ccc(Cc2nc3c(Cc4ccccc4)nc(-c4ccc(O)cc4)cn3c2O)cc1 [nCTZ, native coelenterazine]
[3]
  bioluminescence spectra, COS-7 lysate: The nCTZ was commonly bright among all the tested marine luciferases
